Assay: Sensory comparison of flavored products with the flavor not according to the invention
Type: in vivo

CCC1OC(C)(CC)CCC1C(C)C (stereo not shown) [2,6-diethyl-5-isopropyl-2-methyl-tetrahydropyran]
feeling of freshness (standard chewing gum (Example 2.12), 2% flavor composition): more intense feeling of freshness | fullness in the mouth (standard chewing gum (Example 2.12), 2% flavor composition, in particular at the start of chewing): greater fullness in the mouth | boost effect (sugar-free chewing gum (Example 2.11), 1% cinnamon type cool flavor): distinct “boost effect” | feeling of freshness (sugar-free chewing gum (Example 2.11), 1% flavor composition, in particular initial phase of consumption): more intense feeling of freshness | feeling in the mouth (toothpaste 'silica opaque' (Example 2.15), 1% flavor composition): fresher feeling in the mouth | fullness in the mouth (toothpaste 'silica opaque' (Example 2.15), 1% flavor composition, during brushing): increased fullness in the mouth | feeling of freshness (toothpaste, phosphate base (Example 2.13), 1% flavor composition, in particular at the start of brushing): distinct feeling of freshness | effect of the flavor when brushing (toothpaste, phosphate base (Example 2.13), 1% spearmint type flavor): intensified effect of the flavor when brushing | retronasal cooling (toothpaste, transparent gel (Example 2.14), 1% flavor composition): distinct retronasal cooling | freshness profile (toothpaste, transparent gel (Example 2.14), 1% flavor composition, during brushing): clearer freshness profile
